Experiments:
[1] = system: TNF-α; assay: TNF-α level in LPS-stimulated macrophage cells; format: cell-based, mouse
Protocol: FIG. 4, comprising FIGS. 4A-4F, is a set of graphs, bar graphs and images illustrating anti-oxidant and anti-inflammatory effects of BRAP in vitro. […] The generation of ROS was monitored by flow cytometry as an indicator of DCF fluorescence. Fluorescence was analyzed in 10,000 cells with excitation at 480 nm and emission at 530 nm. FIG. 4C: Protective effect of BRAP on H2O2— stimulated adult rat cardiomyocytes. V=vehicle, *<0.05 vs. V+H2O2 (n=4). […] (n=4/group).
The anti-inflammatory effects of BRAP on LPS-stimulated cells were investigated by measuring the level of inflammatory cytokines such as TNF-α (tumor necrosis factor-alpha) and iNOS (inducible nitric oxide synthases) (FIGS. 4E-4F). […] These observations indicate that BRAP, as well as BRAP-encapsulated PLGA microparticles, is able to scavenge overproduced H2O2 and serve as a H2O2-activable anti-oxidant. Further, the enhanced anti-oxidant activity of BRAP is derived from the combined effects of H2O2-scavenging boronic esters and HBA generation after H2O2-mediated boronate oxidation.

[2] = Stability of BRAP under acidic condition (1H NMR); format: physicochemical; conditions: pH 3.0, 72 hours of incubation
Protocol: FIG. 2, comprising FIGS. 2A-2C, illustrates H2O2 scavenging effects of BRAP. FIG. 2A: Exemplary change of UV-absorbance of BRAP in the presence of H2O2. FIG. 2B: H2O2 scavenging by various concentrations of BRAP. H2O2 solution (10 μM) was mixed with HBA or BRAP for 1 min, and the chemiluminescent intensity was measured by adding diphenyl oxalate (10 mg) and rubrene (1 mg). *p<0.01, **p<0.001 relative to H2O2 only group (n=4/group). FIG. 2C: ^1H NMR spectrum of BRAP under acidic condition (pH=3.0) after 72 h.
Without wishing to be limited by any theory, BRAP could scavenge H2O2 during its H2O2-mediated boronate oxidation. This possibility was investigated using peroxalate chemiluminescence. Peroxalate chemiluminescence has been used as a versatile tool for the detection of a variety of chemical species including fluorescent molecules and H2O2 because of its excellent specificity and simplicity (Hadd, et al., 1999, J. Chem. Educ. 76:1237; Lee, et al., 2011, Bull. Korean Chem. Soc. 32:2187). […] A majority of H2O2 was scavenged by the same concentration of BRAP within 1 minutes.

stability in acidic environment [2]: not influenced
SMILES: CC1(CO)COB(c2ccc(CO)cc2)OC1 [BRAP, (4-(5-(hydroxymethyl)-5-methyl-1,3,2-dioxaborinan-2-yl)phenyl)methanol]
TNF-α level [1]: significantly suppressing

From patent publication US10370391B2, “Hydrogen peroxide-activable, anti-oxidant compounds and methods using same” (Beth Israel Deaconess Medical Center, Inc., priority 2014, dated 2019)
